Measurements reported in PubChem BioAssay (NCI).
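Compound exposure: 48 hours, 5 concentrations, 96-well plates. GI50 = concentration required for 50% inhibition of growth. TGI: concentration producing complete growth inhibition.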

Assays:
Experiment in all cases: inhibition of tumour cell growth, NCI panel, 48 h
CCRF-CEM leukemia = system: CCRF-CEM leukemia
HL-60(TB) leukemia = system: HL-60(TB) leukemia
PC-3 prostate = system: PC-3 prostate
KM12 colon = system: KM12 colon
K-562 leukemia = system: K-562 leukemia
NCI-H23 lung = system: NCI-H23 lung
SK-MEL-5 melanoma = system: SK-MEL-5 melanoma
SNB-19 CNS = system: SNB-19 CNS
SF-268 CNS = system: SF-268 CNS
T-47D breast = system: T-47D breast
HOP-92 NSCLC = system: HOP-92 NSCLC
RPMI-8226 leukemia = system: RPMI-8226 leukemia
ACHN renal = system: ACHN renal
U251 CNS = system: U251 CNS
MDA-MB-231 breast = system: MDA-MB-231 breast
MALME-3M melanoma = system: MALME-3M melanoma
SR leukemia = system: SR leukemia
A549 NSCLC = system: A549 NSCLC
HCT-15 colon = system: HCT-15 colon
NCI-H226 lung = system: NCI-H226 lung
SW-620 colon = system: SW-620 colon
UO-31 renal = system: UO-31 renal
A498 renal = system: A498 renal
SF-295 CNS = system: SF-295 CNS
HT29 colon = system: HT29 colon
SK-MEL-2 melanoma = system: SK-MEL-2 melanoma
HCT-116 colon = system: HCT-116 colon
TK-10 renal = system: TK-10 renal
LOX IMVI melanoma = system: LOX IMVI melanoma
M14 melanoma = system: M14 melanoma
786-0 renal = system: 786-0 renal
UACC-257 melanoma = system: UACC-257 melanoma
BT-549 breast = system: BT-549 breast
SK-OV-3 ovarian = system: SK-OV-3 ovarian
HOP-62 NSCLC = system: HOP-62 NSCLC
SF-539 CNS = system: SF-539 CNS
EKVX NSCLC = system: EKVX NSCLC
CAKI-1 renal = system: CAKI-1 renal
SK-MEL-28 melanoma = system: SK-MEL-28 melanoma
OVCAR-8 ovarian = system: OVCAR-8 ovarian
MDA-MB-435 = system: MDA-MB-435
MCF7 breast = system: MCF7 breast
SN12C renal = system: SN12C renal
DU-145 prostate = system: DU-145 prostate
OVCAR-5 ovarian = system: OVCAR-5 ovarian
MOLT-4 leukemia = system: MOLT-4 leukemia
NCI-H460 lung = system: NCI-H460 lung
HS 578T breast = system: HS 578T breast
NCI-H522 lung = system: NCI-H522 lung
UACC-62 melanoma = system: UACC-62 melanoma
HCC-2998 colon = system: HCC-2998 colon
NCI/ADR-RES ovarian = system: NCI/ADR-RES ovarian
OVCAR-3 ovarian = system: OVCAR-3 ovarian
IGROV1 ovarian = system: IGROV1 ovarian
RXF 393 renal = system: RXF 393 renal
OVCAR-4 ovarian = system: OVCAR-4 ovarian
MDA-MB-468 breast = system: MDA-MB-468 breast
SNB-75 CNS = system: SNB-75 CNS
COLO 205 colon = system: COLO 205 colon

COc1ccc2ncc(C#Cc3cncc(C(=O)Nc4ccc(CN5CCN(C)CC5)c(C(F)(F)F)c4)c3)n2n1
GI50 (CCRF-CEM leukemia): 0.203 µM
TGI (CCRF-CEM leukemia): > 72 µM
GI50 (HL-60(TB) leukemia): 0.31 µM
TGI (HL-60(TB) leukemia): 4.25 µM
GI50 (PC-3 prostate): 3.76 µM
TGI (PC-3 prostate): 19.9 µM
GI50 (KM12 colon): 0.0072 µM
TGI (KM12 colon): 9.17 µM
GI50 (K-562 leukemia): 0.0072 µM
TGI (K-562 leukemia): 1.11 µM
GI50 (NCI-H23 lung): 0.629 µM
TGI (NCI-H23 lung): 10.3 µM
GI50 (SK-MEL-5 melanoma): 4.78 µM
TGI (SK-MEL-5 melanoma): 14.9 µM
GI50 (SNB-19 CNS): 9.94 µM
TGI (SNB-19 CNS): 21.5 µM
GI50 (SF-268 CNS): 2.83 µM
TGI (SF-268 CNS): 18.5 µM
GI50 (T-47D breast): > 72 µM
TGI (T-47D breast): > 72 µM
GI50 (HOP-92 NSCLC): 0.238 µM
TGI (HOP-92 NSCLC): 2.9 µM
GI50 (RPMI-8226 leukemia): 1.39 µM
TGI (RPMI-8226 leukemia): > 72 µM
GI50 (ACHN renal): 1.39 µM
TGI (ACHN renal): > 28.4 µM
GI50 (U251 CNS): 9.62 µM
TGI (U251 CNS): 23.2 µM
GI50 (MDA-MB-231 breast): 0.61 µM
TGI (MDA-MB-231 breast): 6.53 µM
GI50 (MALME-3M melanoma): 0.384 µM
TGI (MALME-3M melanoma): 3.32 µM
GI50 (SR leukemia): 0.549 µM
TGI (SR leukemia): > 30.5 µM
GI50 (A549 NSCLC): 1.27 µM
TGI (A549 NSCLC): 17.7 µM
GI50 (HCT-15 colon): 0.496 µM
TGI (HCT-15 colon): 9.8 µM
GI50 (NCI-H226 lung): 0.147 µM
TGI (NCI-H226 lung): 2.3 µM
GI50 (SW-620 colon): 0.27 µM
TGI (SW-620 colon): 7.6 µM
GI50 (UO-31 renal): 3.23 µM
TGI (UO-31 renal): 12.8 µM
GI50 (A498 renal): 14.2 µM
TGI (A498 renal): > 37.7 µM
GI50 (SF-295 CNS): 0.986 µM
TGI (SF-295 CNS): 15.5 µM
GI50 (HT29 colon): 0.444 µM
TGI (HT29 colon): 9.45 µM
GI50 (SK-MEL-2 melanoma): 1.29 µM
TGI (SK-MEL-2 melanoma): 6.54 µM
GI50 (HCT-116 colon): 0.244 µM
TGI (HCT-116 colon): 5.55 µM
GI50 (TK-10 renal): 6.03 µM
TGI (TK-10 renal): 15.6 µM
GI50 (LOX IMVI melanoma): 0.877 µM
TGI (LOX IMVI melanoma): 4.26 µM
GI50 (M14 melanoma): 0.569 µM
TGI (M14 melanoma): 3.12 µM
GI50 (786-0 renal): 3.53 µM
TGI (786-0 renal): 15.6 µM
GI50 (UACC-257 melanoma): 3.8 µM
TGI (UACC-257 melanoma): 16.7 µM
GI50 (BT-549 breast): 1.47 µM
TGI (BT-549 breast): 9.85 µM
GI50 (SK-OV-3 ovarian): 5.68 µM
TGI (SK-OV-3 ovarian): 20 µM
GI50 (HOP-62 NSCLC): 1.16 µM
TGI (HOP-62 NSCLC): 16.6 µM
GI50 (SF-539 CNS): 0.196 µM
TGI (SF-539 CNS): 1.13 µM
GI50 (EKVX NSCLC): 1.22 µM
TGI (EKVX NSCLC): 13.3 µM
GI50 (CAKI-1 renal): 1.08 µM
TGI (CAKI-1 renal): 10.5 µM
GI50 (SK-MEL-28 melanoma): 2.59 µM
TGI (SK-MEL-28 melanoma): 5.8 µM
GI50 (OVCAR-8 ovarian): 4.26 µM
TGI (OVCAR-8 ovarian): 18.2 µM
GI50 (MDA-MB-435): 0.54 µM
TGI (MDA-MB-435): 13.3 µM
GI50 (MCF7 breast): 0.295 µM
TGI (MCF7 breast): 3.68 µM
GI50 (SN12C renal): 1.37 µM
TGI (SN12C renal): 8.03 µM
GI50 (DU-145 prostate): 2.19 µM
TGI (DU-145 prostate): 13.4 µM
GI50 (OVCAR-5 ovarian): 0.838 µM
TGI (OVCAR-5 ovarian): 9.91 µM
GI50 (MOLT-4 leukemia): 0.356 µM
TGI (MOLT-4 leukemia): 4.07 µM
GI50 (NCI-H460 lung): 0.496 µM
TGI (NCI-H460 lung): 13.1 µM
GI50 (HS 578T breast): 0.398 µM
TGI (HS 578T breast): 6.06 µM
GI50 (NCI-H522 lung): 1.84 µM
TGI (NCI-H522 lung): 14.1 µM
GI50 (UACC-62 melanoma): 8.37 µM
TGI (UACC-62 melanoma): 18.2 µM
GI50 (HCC-2998 colon): 4.16 µM
TGI (HCC-2998 colon): 14.4 µM
GI50 (NCI/ADR-RES ovarian): 2.23 µM
TGI (NCI/ADR-RES ovarian): 9.34 µM
GI50 (OVCAR-3 ovarian): 6.35 µM
TGI (OVCAR-3 ovarian): > 39.7 µM
GI50 (IGROV1 ovarian): 3.81 µM
TGI (IGROV1 ovarian): > 30.2 µM
GI50 (RXF 393 renal): 1.31 µM
TGI (RXF 393 renal): 8.63 µM
GI50 (OVCAR-4 ovarian): 3.89 µM
TGI (OVCAR-4 ovarian): 18.3 µM
GI50 (MDA-MB-468 breast): 1.66 µM
TGI (MDA-MB-468 breast): 13 µM
GI50 (SNB-75 CNS): 5.91 µM
TGI (SNB-75 CNS): 15.9 µM
GI50 (COLO 205 colon): 0.265 µM
TGI (COLO 205 colon): 2.34 µM
